Test [1] concerns the target T1, recombinant human brain-derived phosphodiesterase 4D3 (Homo sapiens, UniProt Q08499).
T1 construct: GST (N); made in house; host or cells: Escherichia coli BL21 (BL21/pPDE4D3, FERM BP-7075)
Nature of the test: Assay of phosphodiesterase IV-inhibiting effect (SPA, [3H]cAMP). The class given is biochemical. The settings on record: recombinant human brain-derived phosphodiesterase 4D3, SPA with [3H]cAMP, 30 minutes at 30° C.; read-out: PDE IV-inhibiting effect (IC50). From the text: Experiment Example 1 Assay of Phosphodiesterase IV-inhibiting Effect
(1) Human Brain-derived Phosphodiesterase 4D3-encoding Gene Cloning
From a human brain cDNA library, a gene encoding phosphodiesterase 4D3 was cloned. […] The resultant PCR product was subjected to an agarose gel electrophoresis and an about 2.4 kb DNA fragment was recovered. This fragment was made blunt using a Pfu DNA polymerase ([…]) and then a phosphodiesterase 4D3 gene was cloned using Zero Blunt PCR Cloning Kit (Invitrogen).
(2) Construction of E.coli Expression Vector
The plasmid obtained in Section (1) described above was digested with a restriction enzyme EcoRI (Takara) and subjected to an agarose gel electrophoresis to recover an about 2.4 kb DNA fragment. […] This cDNA fragment was transformed into an E.coli BL21 (FUNAKOSHI) using a ligation solution, whereby obtaining an Escherichia coli BL21/pPDE4D3 capable of expressing the phosphodiesterase 4D3 gene.
(3) Expression of Recombinant Human Brain-derived Phosphodiesterase 4D3 in Escherichia coli and Purification Thereof
Using the Escherichia coli BL21/pPDE4D3 obtained in Section (2) described above, a recombinant human brain-derived phosphodiesterase 4D3 was obtained. The expression and purification of E. coli were in accordance with the protocol attached to GST Gene Fusion System (Pharmacia).
(4) Assay of Phosphodiesterase IV-inhibiting Effect
To a 96-well plate (OPTI plate, Packard), 10 μl of a buffer solution [0.5 M Tris-HCl (pH7.5), 83 mM MgCl2, 17 mM EGTA], 10 μl of the recombinant human brain-derived phosphodiesterase 4D3 (0.0034 mg/mL) obtained in […] described above, 65 μl of Ultrapure water, 5 μl of an inhibitor sample and 10 μl of [^3H]cAMP were added and reacted for 30 minutes at 30° C. After completing the reaction, 50 μl of SPA beads solution [18 mg/mL Yttrium silicate beads, 18 mM ZnSO4] was added, allowed to stand at room temperature for about 20 minutes, and the radioactivity was counted using a scintillation counter (Topcount, Packard). […] This assay system was employed to determine the recombinant human brain-derived phosphodiesterase-inhibiting effect (IC50) of each inventive compound.

Test [2] has as its system antigen-induced bronchoconstriction. Briefly: Inhibiting effect on antigen-induced bronchoconstriction in guinea pigs (modified Konzett-Rossler method). The class given is in vivo. The settings on record: guinea pig, 1 mg/kg intravenously 5 minutes before the antigen challenge, vs control group. The method, then: Example 2 Inhibiting Effect on Antigen-induced Bronchoconstriction in Guinea Pigs
(1) Preparation of Rabbit Anti-ovalbumin (OA) Serum
A white rabbit (body weight: about 3 kg; New Zealand white: […] LABES) was immunized by an intramuscular administration of 1.0 mL of an emulsion of 0.5 mL of a 10% OA (Grade III, Sigma) solution and 0.5 mL of Freund Complete Adjuvant (WAKO PURE CHEMICAL […], LTD.). This procedure was conducted once every week repetitively 4 times in total. One week after the final immunization, the whole blood was sampled. The blood sample was allowed to stand at room temperature for 1 hour or longer, and then in a refrigeration room for a day. On the following day, the serum fraction was isolated and centrifuged (3000 rpm, 10 min.), and the supernatant was stored as an antiserum at −20° C.
(2) Antigen-induced Bronchoconstriction
The bronchoconstriction was measured by a modified Konzett-Rossler method. Each male Hartley guinea pig weighing 400 to 500 g (NIPPON SLC, Shizuoka) was anesthetized with ether, treated intravenously with 1.0 mL of a 8- to 16-fold diluted anti-OA serum, and subjected to an experiment after 16 to 24 hours. Under an anesthesia with urethane (1.2 g/kg ip) (Aldrich), a tracheal cannula was inserted, and gallamine triethiodide (1 mg/kg iv) (Sigma) was administered to arrest the spontaneous respiration. The animal was ventilated artificially using an artificial respirator (Harvard model 683) at 70 respirations/minutes, with each ventilation volume of 2 to 3 mL and initial load of 10 cmH2O, and the intratracheal pressure was measured at the side arm of the tracheal cannula using a differential pressure type transducer. Mepyramine maleate (1.0 mg/kg) (Sigma) and propranolol (1.0 mg/kg) (Sigma) were administered intravenously 2 minutes after the administration of gallamine triethiodide, and after further 2 minutes the OA antigen (1.0 mg/kg) was administered intravenously to induce the bronchoconstriction.
A compound of Example was dissolved in 25% dimethylacetamide, 25% polyethylene glycol 400 and 50% physiological saline, and administered intravenously 5 minutes before the antigen challenge at a dose of 1 mg/kg. Percent inhibition was calculated based on the comparison with a control group (intravenous administration of a mixture of 25% dimethylacetamide, 25% polyethylene glycol 400 and 50% physiological saline).

pIC50: −log10 of the molar value.

Usually pIC50 stands for the IC50 on a negative log10 scale, so that one unit is a factor of ten.

T1 sequence (Q08499 1-673 isoform Q08499-2): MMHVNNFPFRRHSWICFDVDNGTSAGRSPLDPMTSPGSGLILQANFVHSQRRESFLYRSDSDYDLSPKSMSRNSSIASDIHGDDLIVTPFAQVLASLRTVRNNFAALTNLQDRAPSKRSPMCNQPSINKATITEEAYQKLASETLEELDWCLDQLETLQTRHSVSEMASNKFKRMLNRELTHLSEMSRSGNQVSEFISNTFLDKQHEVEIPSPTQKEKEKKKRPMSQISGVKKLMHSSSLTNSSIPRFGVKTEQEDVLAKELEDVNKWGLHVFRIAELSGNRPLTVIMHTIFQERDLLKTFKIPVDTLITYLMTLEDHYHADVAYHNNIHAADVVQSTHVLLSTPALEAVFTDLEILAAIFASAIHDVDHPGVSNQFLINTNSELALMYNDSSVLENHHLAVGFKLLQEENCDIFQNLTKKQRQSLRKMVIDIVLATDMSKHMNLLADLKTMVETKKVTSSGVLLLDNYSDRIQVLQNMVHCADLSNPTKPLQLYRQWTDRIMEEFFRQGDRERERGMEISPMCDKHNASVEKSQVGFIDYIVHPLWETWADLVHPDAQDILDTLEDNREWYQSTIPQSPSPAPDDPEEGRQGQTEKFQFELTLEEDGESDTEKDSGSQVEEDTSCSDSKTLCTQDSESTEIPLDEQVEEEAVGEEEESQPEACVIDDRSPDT

Consider `COc1cc2c(c3c1OC(C)(C)C3)C(c1cccc(NC(=O)C[S+](C)[O-])c1)=NC(C)(C)C2` (centres unmarked) [Example 39, 2-(Methylsulfinyl)-N-[3-(3,4,8,9-tetrahydro-6-methoxy-3,3,8,8-tetramethylfuro[2,3-h]isoquinolin-1-yl)phenyl]acetamide], for which the pIC50 in test [1] is 7.71. The “% inhibition in bronchoconstriction” value in test [2] amounted to 45%.

Take `COc1cc2c(c3c1OC(C)(C)C3)C(c1cccc(N(S(C)(=O)=O)S(C)(=O)=O)c1)=NC(C)(C)C2` [Example 45, N-(Methylsulfonyl)-N-[3-(3.4,8,9-tetrahydro-6-methoxy-3,3,8,8-tetramethylfuro[2,3-h]isoquinolin-1-yl)phenyl]methanesulfonamide]: the pIC50 in test [1] was 8.03. Also, the “% inhibition in bronchoconstriction” value in test [2] is 44%.

`COc1cc2c(c3c1OC(C)(C)C3)C(c1cccc(C(=O)NCCc3ccncc3)c1)=NC(C)(C)C2` [Example 149, N-[2-(4-Pyridinyl)ethyl]-3-(3,4.8,9-tetrahydro-6-methoxy-3,3,8,8-tetramethylfuro[2,3-h]isoquinolin-1-yl)benzamide]: in test [1], the pIC50 is 7.40. Besides, the “% inhibition in bronchoconstriction” value in test [2] was 58%.

Turning to `COc1cc2c(c3c1OC(C)(C)C3)C(c1cccc(C(=O)NCC(N)=O)c1)=NC(C)(C)C2` [Example 157, N-(2-Amino-2-oxoethyl)-3-(3,4,8,9-tetrahydro-6-methoxy-3,3,8,8-tetramethylfuro[2,3-h]isoquinolin-1-yl)benzamide], the pIC50 in test [1] was 7.09. The “% inhibition in bronchoconstriction” value in test [2] is given as 57%.

Take `CNC(=O)c1cccc(C2=NC(C)(C)Cc3cc(OC)c4c(c32)CC(C)(C)O4)c1` [Example 179, N-Methyl-3-(3,4,8,9-tetrahydro-6-methoxy-3,3,8,8-tetramethylfuro[2,3-h]isoquinolin-1-yl)benzamide]: the pIC50 in test [1] was 6.91. In test [2], the “% inhibition in bronchoconstriction” value was 46%.

Regarding `CCNC(=O)c1cccc(C2=NC(C)(C)Cc3cc(OC)c4c(c32)CC(C)(C)O4)c1` [Example 180, N-Ethyl-3-(3,4,8,9-tetrahydro-6-methoxy-3,3,8,8-tetramethylfuro[2,3-h]isoquinolin-1-yl)benzamide], in test [1], the pIC50 is 6.91. Besides, the “% inhibition in bronchoconstriction” value in test [2] is 57%.

Turning to `COc1cc2c(c3c1OC(C)(C)C3)C(c1cccc(-c3cccc(NC(C)=O)c3)c1)=NC(C)(C)C2` [Example 263, N-[3′-(3,4,8,9-Tetrahydro-6-methoxy-3,3,8,8-tetramethylfuro[2,3-h]isoquinolin-1-yl)[1,1′-biphenyl]-3-yl]acetamide], the negative-log IC50 (pIC50) in test [1] is 7.86. In addition, in test [2], the “% inhibition in bronchoconstriction” value is given as 59%.

The record behind these values is patent US6924292B2, “Furoisoquinoline derivatives, process for producing the same and use thereof” (Takeda Chemical Industries, Ltd., priority 2000, dated 2005).
